Results as given in PubChem BioAssay AID248 (DTP/NCI, 2004).
Several values for one entry are separate records, joined by “and”; a condition that tells them apart may be missing. Identical values can stand only once. Toxic doses and inconclusive results are not listed. Rule as the data show it: active = T/C of 150% or more; inactive = T/C below 125%.

Tested on: L1210 leukemia ip in BDF1 mice, survival T/C
Assay: NCI In Vivo Anticancer Drug Screen. Data for tumor model L1210 Leukemia (intraperitoneal) in B6D2F1 (BDF1) mice
Details: endpoint: mean survival time, higher = longer survival
Summary of the method: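 Value reflects the ratio of survival in compound-treated mice to survival in vehicle-treated controls, with both groups carrying the same transplanted tumor.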

[1] = dose: 100.0 mg/kg/injection, schedule: Q01DX001 (ip), vehicle: Klucel (hydroxypropylcellulose) (HPC)
[2] = dose: 200.0 mg/kg/injection, schedule: Q01DX001 (ip), vehicle: Klucel (hydroxypropylcellulose) (HPC)
[3] = dose: 100.0 mg/kg/injection, schedule: Q01DX001 (ip), vehicle: other
[4] = dose: 200.0 mg/kg/injection, schedule: Q01DX001 (ip), vehicle: other
[5] = dose: 100.0 mg/kg/injection, schedule: Q01DX001 (ip), vehicle: saline
[6] = dose: 200.0 mg/kg/injection, schedule: Q01DX001 (ip), vehicle: saline
[7] = dose: 400.0 mg/kg/injection, schedule: Q01DX001 (ip), vehicle: saline
[8] = dose: 100.0 mg/kg/injection, schedule: Q04DX002 (ip), vehicle: Klucel (hydroxypropylcellulose) (HPC)
[9] = dose: 200.0 mg/kg/injection, schedule: Q04DX002 (ip), vehicle: Klucel (hydroxypropylcellulose) (HPC)
[10] = dose: 400.0 mg/kg/injection, schedule: Q04DX002 (ip), vehicle: Klucel (hydroxypropylcellulose) (HPC)
[11] = dose: 50.0 mg/kg/injection, schedule: Q01DX001 (ip), vehicle: saline
[12] = dose: 100.0 mg/kg/injection, schedule: Q01DX009 (ip), vehicle: Klucel (hydroxypropylcellulose) (HPC)
[13] = dose: 200.0 mg/kg/injection, schedule: Q01DX009 (ip), vehicle: Klucel (hydroxypropylcellulose) (HPC)
[14] = dose: 400.0 mg/kg/injection, schedule: Q01DX009 (ip), vehicle: Klucel (hydroxypropylcellulose) (HPC)

Measured: T/C

CCOC(=O)/C(C#N)=N/O
inactive: dose: 18.8 mg/kg/injection, schedule: Q01DX009 (ip), vehicle: saline 94 % of control | dose: 18.8 mg/kg/injection, schedule: Q04DX003 (ip), vehicle: saline 95 % of control | dose: 37.5 mg/kg/injection, schedule: Q01DX009 (ip), vehicle: saline 91 % of control | dose: 37.5 mg/kg/injection, schedule: Q04DX003 (ip), vehicle: saline 97 % of control | dose: 75.0 mg/kg/injection, schedule: Q04DX003 (ip), vehicle: saline 97 % of control

CCOC(=O)C1CCCCC1
inactive: dose: 100.0 mg/kg/injection, schedule: Q04DX003 (ip), vehicle: saline 102 % of control | dose: 200.0 mg/kg/injection, schedule: Q04DX003 (ip), vehicle: saline 98 % of control | dose: 400.0 mg/kg/injection, schedule: Q04DX003 (ip), vehicle: saline 91 % of control

CCN(CC)CC(=O)CC12CC3CC(CC(C3)C1)C2
inactive: dose: 0.8 mg/kg/injection, schedule: Q04DX002 (ip), vehicle: saline 93 % of control | dose: 1.6 mg/kg/injection, schedule: Q04DX002 (ip), vehicle: saline 97 % of control | dose: 3.1 mg/kg/injection, schedule: Q04DX002 (ip), vehicle: saline 101 % of control | dose: 6.25 mg/kg/injection, schedule: Q04DX002 (ip), vehicle: saline 97 % of control

Nc1cc(Nc2ccccc2)nc(=O)[nH]1
inactive: [1] 94 % of control | [2] 97 % of control

CCOC(=O)c1ccc(NCC(=N)N)cc1
inactive: dose: 100.0 mg/kg/injection, schedule: Q01DX001 (ip), vehicle: saline sonified 103 % of control | dose: 200.0 mg/kg/injection, schedule: Q01DX001 (ip), vehicle: saline sonified 100 % of control

CCCCCCCCCCOC(=O)CCN1CC1
inactive: dose: 100.0 mg/kg/injection, schedule: Q04DX003 (ip), vehicle: saline with Tween-80 109 % of control | dose: 200.0 mg/kg/injection, schedule: Q04DX003 (ip), vehicle: saline with Tween-80 96 % of control

O=C(O)CNc1cc(S(=O)(=O)O)cc2cc(S(=O)(=O)O)c(N=Nc3cc(S(=O)(=O)O)cc4cc(S(=O)(=O)O)cc(O)c34)c(O)c12
inactive: [3] 101 % of control | [4] 104 % of control

CC(C)OC(=O)Nc1cccc(NC(=O)OCCCl)c1
inactive: dose: 100.0 mg/kg/injection, schedule: Q04DX002 (ip), vehicle: saline with Tween-80 97 % of control | dose: 200.0 mg/kg/injection, schedule: Q04DX002 (ip), vehicle: saline with Tween-80 101 % of control | dose: 400.0 mg/kg/injection, schedule: Q04DX002 (ip), vehicle: saline with Tween-80 97 % of control

O/N=C(/Cc1ccccc1)CC(O)(C(F)(F)F)C(F)(F)F
inactive: [5] 110 % of control | dose: 100.0 mg/kg/injection, schedule: Q01DX009 (ip), vehicle: saline 95 % of control | [6] 95 % of control | dose: 200.0 mg/kg/injection, schedule: Q01DX009 (ip), vehicle: saline 102 % of control | [7] 89 % of control | dose: 400.0 mg/kg/injection, schedule: Q01DX009 (ip), vehicle: saline 95 % of control

CC(C)c1cccc(OC(=O)N(C)[Si](C)(C)C)c1
inactive: dose: 5.0 mg/kg/injection, schedule: Q01DX001 (ip), vehicle: saline 105 % of control | dose: 10.0 mg/kg/injection, schedule: Q01DX001 (ip), vehicle: saline 97 % of control | dose: 20.0 mg/kg/injection, schedule: Q01DX001 (ip), vehicle: saline 101 % of control | dose: 40.0 mg/kg/injection, schedule: Q01DX001 (ip), vehicle: saline 101 % of control

Cc1ccc([N+](=O)[O-])cc1NC(=O)Nc1ccc(Nc2ccccc2)cc1
inactive: [8] 86 % of control | [9] 86 % of control | [10] 97 % of control

N#CCC(O)(c1ccccc1)c1ccccc1
inactive: [11] 102 % of control | [5] 98 % of control | [6] 98 % of control | [7] 104 % of control

O=C1OC2=C(c3ccccc3)C(=O)OC2=C1c1ccccc1
inactive: [5] 97 % of control | [6] 104 % of control | [7] 95 % of control

COc1ccccc1CN1CCCN(Cc2ccccc2OC)C1c1cc(Cl)ccc1O
inactive: [11] 101 % of control | [5] 95 % of control | [6] 97 % of control | [7] 101 % of control

CCCNC(C)(C)C(SS)c1ccc(C(F)(F)F)cc1 (stereo not drawn)
inactive: dose: 12.5 mg/kg/injection, schedule: Q01DX009 (ip), vehicle: other 89 % of control | dose: 12.5 mg/kg/injection, schedule: Q04DX003 (ip), vehicle: other 94 % of control | dose: 25.0 mg/kg/injection, schedule: Q01DX009 (ip), vehicle: other 95 % of control | dose: 25.0 mg/kg/injection, schedule: Q04DX003 (ip), vehicle: other 96 % of control | dose: 50.0 mg/kg/injection, schedule: Q01DX009 (ip), vehicle: other 95 % of control | dose: 50.0 mg/kg/injection, schedule: Q04DX003 (ip), vehicle: other 89 % of control

Cc1c(C2=CC(=O)c3ccccc3C2=O)[nH]c2ccccc12
inactive: dose: 50.0 mg/kg/injection, schedule: Q01DX001 (ip), vehicle: other 93 % of control | [3] 91 % of control | [4] 102 % of control | dose: 400.0 mg/kg/injection, schedule: Q01DX001 (ip), vehicle: other 106 % of control

O=C(Nc1cc(Cl)ccc1Cl)c1cccc(F)c1
inactive: [12] 92 % of control | [13] 98 % of control | [14] 98 % of control

CCOC(=O)c1cc2nc(C(C)C)n(Cc3ccccc3)c2cc(C(=O)OCC)c1=O
inactive: [1] 96 % of control | [12] 104 % of control and 89 % of control | [8] 98 % of control and 105 % of control | dose: 100.0 mg/kg/injection, schedule: Q04DX003 (ip), vehicle: Klucel (hydroxypropylcellulose) (HPC) 97 % of control | [2] 91 % of control | [13] 97 % of control and 89 % of control | [9] 96 % of control | dose: 200.0 mg/kg/injection, schedule: Q04DX003 (ip), vehicle: Klucel (hydroxypropylcellulose) (HPC) 100 % of control | dose: 400.0 mg/kg/injection, schedule: Q01DX001 (ip), vehicle: Klucel (hydroxypropylcellulose) (HPC) 100 % of control | [14] 98 % of control | [10] 88 % of control and 89 % of control | dose: 400.0 mg/kg/injection, schedule: Q04DX003 (ip), vehicle: Klucel (hydroxypropylcellulose) (HPC) 100 % of control

CC(=O)O[C@]1(C(C)=O)CC[C@H]2[C@@H]3CCC4=CC(=O)[C@H](C)C[C@]4(C)[C@@]3(F)[C@@H](O)C[C@@]21C
inactive: dose: 25.0 mg/kg/injection, schedule: Q01DX015 (sc), vehicle: steriod suspending solution 100 % of control | dose: 50.0 mg/kg/injection, schedule: Q01DX015 (sc), vehicle: steriod suspending solution 104 % of control | dose: 100.0 mg/kg/injection, schedule: Q01DX015 (sc), vehicle: steriod suspending solution 100 % of control | dose: 200.0 mg/kg/injection, schedule: Q01DX015 (sc), vehicle: steriod suspending solution 104 % of control and 115 % of control | dose: 400.0 mg/kg/injection, schedule: Q01DX015 (sc), vehicle: steriod suspending solution 109 % of control | dose: 800.0 mg/kg/injection, schedule: Q01DX015 (sc), vehicle: steriod suspending solution 110 % of control
